Columns and labels:
4F2hc-IU12 heterodimers = experiment: Thyroid hormone and amino acid transport by 4F2hc-IU12 heterodimers expressed in Xenopus oocytes (radiotracer uptake and its inhibition); assay type: cell-based, Xenopus laevis; conditions: for inhibition of 4F2hc-IU12 induced [3H]tryptophan uptake, in words: 1 μM tryptophan tracer, inhibitors 10 μM T4, 5 mM BCH, increasing unlabelled T3 or tryptophan; for Vmax of 4F2hc-IU12 induced transport / Km / uptake of [3H]phenylalanine and [3H]tryptophan: 4F2hc-IU12 injected oocytes; for Vmax of 4F2hc-IU12 induced transport / Km: 4 days post-injection, TH 0.05-10 μM, 60 min uptake; for Km: read-out: apparent Km of 4F2hc-IU12 induced transport; for inhibition of 4F2hc-IU12 induced 0.1 μM TH (T3) uptake, in words: inhibitors 10 μM T3/T4, 5 mM BCH, 10 mM tryptophan, data shown for T3 only; for uptake of [3H]phenylalanine and [3H]tryptophan: 50 μM amino acid, preliminary experiments
Text: Xenopus laevis toads were purchased from the South African Xenopus Facility. Chemicals were obtained from Sigma (UK) with the exception of Collagenase A (Boehringer, UK) and Ultraspec water (Ambion, UK). Radiotracers were purchased from NEN (UK). cDNAs encoding IU12 (2.3 Kb EcoRI/ApaI fragment from pBluescriptSK-IU12) (Liang et al. 1997, Cell Res 7: 179-193) and human 4F2hc (1.85 Kb Ecor1/BamH1 fragment from pSP65-4F2) (Teixeira et al. 1987, J Biol Chem 262: 9574-9580) were subcloned into the multiple-cloning region of pSG5 (an SV-40 driven expression plasmid).
(§1) Oocytes were isolated by collagenase treatment (Peter et al. 1996, Biochem J 318: 915-922) of ovarian tissue obtained from mature female Xenopus laevis toads (South African Xenopus Facility). Defolliculated, stage V-V1 (prophase-arrested) oocytes were selected and maintained at 18° C. in Modified Barth's Medium (MBM) containing (in mM): 88 NaCl, 1 KCL, 2.4 NaHCO3, 0.82 MgSO4.7H2O, 0.66 NaNO3, 0.75 CaCl2x2H2O, 5.0 HEPES, pH 7.6 with Tris base, 10 mg/liter gentamycin sulphate. For DNA injection, oocytes were transferred into individual wells of Tetraski plates pre-filled with MBM and centrifuged at 500 g for 10 minutes at 18° C., which causes migration of the nucleus to the cell surface and facilitates nuclear injection (Mertz & Gurdon 1977, PNAS 395: 288-291). The visible nucleus of each oocyte was injected with 2 ng DNA in 15 nl Ultraspec water using a pneumatic delivery system (Peter et al. 1996, Biochem J 318: 915-922). For co-injection studies, 2 ng of both DNAs (i.e. 4F2hc/IU12) were injected. Nuclei of control oocytes were injected with Ultraspec water. Oocytes were incubated in MBM at 18° C. for 4 days to allow expression of injected DNA before experimentation.
(§2) All experiments were carried out at 22° C. using Na^+-free transport buffer (unless otherwise stated) containing 100 mM tetramethylammonium chloride (TMACl), 2 mM KCl; 1 mM CaCl2; 1 mM MgCl2; 10 mM HEPES, pH 7.5 with Tris). Radiolabelled amino acid uptake (3H-phenylalanine or ^3H-tryptophan over 30 min) was also measured (Peter et al. 1996, Biochem J 318: 915-922). BCH (5 mM) was used as a specific inhibitor of amino acid transport System L.
Data are expressed as mean values±standard error of the mean (S.E.M; n=number of observations). Experimental measurements in each batch of oocytes were made on 7-11 individual oocytes. Differences between mean values were assessed using Students unpaired t-test, with significance assigned at p<0.05.

water-injected oocytes = experiment: Basal radiotracer uptake in control (water-injected) Xenopus oocytes; assay type: cell-based, Xenopus laevis; conditions: for uptake of [3H]phenylalanine and [3H]tryptophan: 50 μM amino acid, water-injected cells
Experimental: as §1, §2

[1] = system: BeWo placental choriocarcinoma cells; experiment: Nuclear uptake of [125I]T3 in BeWo cells; assay type: cell-based, human
[2] = system: T3-dependent transcriptional activation of a luciferase reporter in BeWo cells; experiment: T3-induced luciferase reporter activity in BeWo cells; assay type: cell-based, human; conditions: 24 h exposure
Experimental: FIG. 7. […] Infected cells were exposed to experimental conditions for 24 h prior to assay of luciferase activity.

[3] = target: human 4F2 heavy-chain (4F2hc) glycoprotein (human) (UniProt P08195)
[4] = system: T3-dependent activation of luciferase activity; experiment: Thyroid-responsive luciferase reporter (TRE) in oocytes expressing 4F2hc-IU12; assay type: cell-based, Xenopus laevis; conditions: 5 mM BCH, 10 nM T3, 24 h; preliminary data from one batch of oocytes
Experimental: FIG. 6. […] Ratio of luminescent counts for each oocyte type compared to thyroid-responsive luciferase (TRE)-only injected oocytes. Data shown for n=4 batches (each 7-9 oocytes). […] 4/I/R/T—4F2hc/IU12/RXRα/TRβ co-injected oocytes. RXRα/TRβ (heterodimers of RXR, or 9-cis retinoic acid receptor, and TR)— nuclear receptors for TH; *, significant change in luciferase activity compared to TRE-only injected oocytes (p<0.05). […] All incubations were performed over a 24-hour time period.
Overexpression of the 4F2hc-IU12 heterodimer in oocytes produced a functional activation of System L transporter activity.

**Q.** With `N[C@@H](Cc1cc(I)c(Oc2cc(I)c(O)c(I)c2)c(I)c1)C(=O)O` [T4, thyroxine] as the compound, how does the “average increase in uptake over control (water- or IU12-injected oocytes)” value (4F2hc-IU12 heterodimers; 0.1 μM TH, n=5 batches of oocytes) read?
**A.** The value was 2.1±0.5 times.

**Q.** And the “inhibition of 4F2hc-IU12 induced [3H]tryptophan uptake, in words” value (4F2hc-IU12 heterodimers)?
**A.** The value was “has not achieved statistical significance”.

**Q.** What about the “Vmax of 4F2hc-IU12 induced transport” value (4F2hc-IU12 heterodimers) of the same compound?
**A.** Its value is 2.0±0.6 pmol/oocyte.h.

**Q.** And the Km (4F2hc-IU12 heterodimers)?
**A.** The Km was 6.3 µM.

**Q.** And the “inhibition of 4F2hc-IU12 induced 0.1 μM TH (T3) uptake, in words” value (4F2hc-IU12 heterodimers)?
**A.** The value was “mutual cross-inhibition”.

**Q.** Which results are given for `N[C@@H](Cc1c[nH]c2ccccc12)C(=O)O` [tryptophan]?
**A.** inhibition of 4F2hc-IU12 induced [3H]tryptophan uptake, in words (4F2hc-IU12 heterodimers): concentration-dependent inhibition; control tryptophan uptake (absence of inhibitor) (4F2hc-IU12 heterodimers; 1 μM tryptophan, 4F2hc-IU12-injected oocytes): 10.2±0.4 pmol/oocyte.h; uptake of [3H]phenylalanine and [3H]tryptophan (4F2hc-IU12 heterodimers): 120 pmol/oocyte.h; Vmax of 4F2hc-IU12 induced transport (4F2hc-IU12 heterodimers): 180±54 pmol/oocyte.h; Km (4F2hc-IU12 heterodimers): 70 µM; inhibition of 4F2hc-IU12 induced 0.1 μM TH (T3) uptake, in words (4F2hc-IU12 heterodimers): significantly inhibited; control tryptophan uptake (absence of inhibitor) (water-injected oocytes; 1 μM tryptophan, water-injected oocytes): 2.1±0.1 pmol/oocyte.h; uptake of [3H]phenylalanine and [3H]tryptophan (water-injected oocytes): 10 pmol/oocyte.h; effect on nuclear uptake of [125I]T3 [1]: inhibit; effect on T3-dependent transcriptional activation of a luciferase reporter [2]: inhibit

**Q.** Which results are given for `N[C@@H](Cc1ccccc1)C(=O)O` [phenylalanine]?
**A.** uptake of [3H]phenylalanine and [3H]tryptophan (4F2hc-IU12 heterodimers): 120 pmol/oocyte.h; uptake of [3H]phenylalanine and [3H]tryptophan (water-injected oocytes): 10 pmol/oocyte.h

**Q.** Which results are given for `O=C(O)Cc1cc(I)c(Oc2ccc(O)c(I)c2)c(I)c1` [TRIAC, triodothyroacetic acid]?
**A.** inhibition of T3 uptake, in words (water-injected oocytes; water-injected oocytes): did not inhibit; inhibition of tryptophan uptake, in words (water-injected oocytes; water-injected oocytes): did not inhibit

**Q.** Which “control T3 uptake (absence of inhibitor)” value (water-injected oocytes; 0.1 μM T3, water-injected oocytes) does the source give for `N[C@@H](Cc1cc(I)c(Oc2ccc(O)c(I)c2)c(I)c1)C(=O)O` [T3, tri-iodothyronine] here?
**A.** Its value is 22±3 fmol/oocyte.h.

**Q.** How did the uptake of [3H]phenylalanine and [3H]tryptophan into Xenopus oocytes (pmol/oocyte.h) [3] turn out when “Xenopus laevis IU12 light-chain (lc) permease” was run?
**A.** Its uptake of [3H]phenylalanine and [3H]tryptophan into Xenopus oocytes (pmol/oocyte.h) is 120.

**Q.** And the uptake of [125I]T3 and [125I]T4 (0.1 µM) into Xenopus oocytes (times over control (T3)) [3]?
**A.** Its uptake of [125I]T3 and [125I]T4 (0.1 µM) into Xenopus oocytes (times over control (T3)) is 2.7.

**Q.** Which results are given for `NC1(C(=O)O)CC2CCC1C2` (stereo not shown) [BCH, 2-endoamino-bicycloheptane-2-carboxylic acid]?
**A.** inhibition of 4F2hc-IU12 induced [3H]tryptophan uptake, in words (4F2hc-IU12 heterodimers): inhibited; inhibition of 4F2hc-IU12 induced 0.1 μM TH (T3) uptake, in words (4F2hc-IU12 heterodimers): significantly inhibited; effect on T3-dependent activation of luciferase activity in oocytes expressing 4F2hc-IU12 [4]: blocked; effect on nuclear uptake of [125I]T3 [1]: inhibit; effect on T3-dependent transcriptional activation of a luciferase reporter [2]: inhibit

**Q.** With `NC(Cc1ccc(Oc2cc(I)c(O)c(I)c2)c(I)c1)C(=O)O` (stereo not shown) [rT3, reverse tri-iodothyronine] as the compound, how does the “inhibition of induced 0.1 μM T3 uptake” value (4F2hc-IU12 heterodimers; inhibitor 10 μM, n=3 preparations) read?
**A.** The value was 41±4%.

Source: patent publication US20090081212A1, “USE AND TARGETING OF CD98 LIGHT-CHAIN PROTEINS IN THERAPIES FOR THYROID HORMONE DISORDERS” (The Government of the U.S.A., as Represented by the …, priority 2000, published 2009)
